Reference: US20090074766A1, “Methods of inhibiting HIV-2 infection” (priority 2007, published 2009)
Read-outs that look alike come from different tables or passages of the source.

Experiments:
Parameters in all cases: CI90: unit not given beside the values
[1] = system: HIV-1JR-FL envelope-mediated membrane fusion (HeLa-EnvJRFL and CEM NKR-CCR5 cells); experiment: cell-based
Protocol: (§1) The HIV-1 RET assay has been described in detail previously (Litwin et al., 1996). Briefly, fluorescein octadecyl ester (F18; Molecular Probes, Eugene, Oreg.; 5 mg/ml in ethanol), was diluted 1:800 in DMEM labeling medium (DMEM; Invitrogen, Carlsbad, Calif.) with 10% fetal bovine serum (FBS; HyClone, Logan, Utah) and adjusted to an A506 of 0.34±10%. Octadecyl rhodamine B chloride (R18; Molecular Probes; 10 mg/ml in ethanol) was diluted 1:2050 in labeling medium and adjusted to an A565 of 0.52±10%. Both dyes were further diluted 2-fold by addition to cells in T75-cm^2 flasks. HeLa-EnvJRFL and CEM NKR-CCR5 cells were incubated overnight in F18- and R18-containing culture medium, respectively. The following day, medium from HeLa-EnvJRFL cells was removed and 10 ml of 0.5 mM EDTA was added and incubated at 37° C. for 5 min. EDTA was removed and the flask was returned to the incubator for another 5 min followed by striking of the flask to dislodge cells. […] Suspension CEM NKR-CCR5 cells were added directly to a separate 50-ml conical centrifuge tube. Both cell lines were centrifuged at 300×g for 5 min. The supernatant was discarded and cells were resuspended in 10 ml of PBS-/15% FBS. The centrifugation/wash step was repeated twice, after which the cells were counted and concentrations adjusted to 1.5×10^6 cells/ml. Ten μl of each cell type (15,000 cells) were seeded into wells of a 384-well plate. Inhibitor compounds were added immediately thereafter to bring the final well volume to 40 μl, and the plates were incubated for 4 h at 37° C. Compounds were tested individually and in combination at a fixed molar ratio or mass ratio over a range of serial dilutions. The plates were then read on a fluorescence plate reader (Victor^2, Perkin Elmer, Boston, Mass.) using the excitation/emission filter combinations shown in Table 6.
(§2) The “% RET” was calculated according to the following formula after subtraction of background (blank) readings: […]
(§3) The “% Inhibition” was calculated according to the following formula: […]
(§4) Fifty percent inhibition (IC50) values were determined by fitting the inhibition data with a non-linear, four-parameter, variable slope equation (GraphPad Prism, 4.02; GraphPad Software, San Diego, Calif.). Upper and lower inhibition values were constrained to 100% and 0%, respectively for curve fitting.
(§5) For testing, small molecule compounds were solubilized in dimethylsulfoxide (DMSO) to 10 mM and then diluted in DMSO to 200× the final concentration to be utilized in the antiviral assay. Serial dilutions of small molecules were conducted in DMSO. Subsequent dilutions were conducted in medium to achieve a final DMSO concentration in the assay of 0.5%. Peptides and mAbs were diluted in PBS in the absence of DMSO.
(§6) HeLa cells were engineered to express HIV-1 gp120/gp41 from the macrophage-tropic primary isolate JRFL as described (HeLa-EnvJRFL; Litwin et al., 1996). Briefly, the HIV-1LAI Env gene was excised from the plasmid pMA243 (Dragic et al., 1992) and the HIV-1JRFL Env gene was inserted. The HIV-1JRFL Env gene was amplified from the plasmid pUCFL112-1 (Koyanagi et al., 1987). The resulting plasmid, designated JR-FL-pMA243, was sequenced by standard methods and transfected into HeLa cells using lipofectin (Gibco BRL/Invitrogen, Carlsbad, Calif.). HeLa-EnvJRFL transfectants were selected in methotrexate (Sigma, St. Louis, Mo.) and cloned twice by limiting dilution. The transduced human T cell leukemia line CEM NKR-CCR5 cells were obtained from the NIH AIDS Research and Reference Program (Cat. No. 458).
(§7) The HIV-1 RET assay has been described in detail previously (Litwin et al., 1996). Briefly, fluorescein octadecyl ester (F18; Molecular Probes, Eugene, Oreg.; 5 mg/ml in ethanol), was diluted 1:800 in DMEM labeling medium (DMEM; Invitrogen, Carlsbad, Calif.) with 10% fetal bovine serum (FBS; HyClone, Logan, Utah) and adjusted to an A506 of 0.34±10%.

[2] = system: reporter viruses pseudotyped with HIV-1SF162 envelope; assay type: cell-based; details: for CI50 / CI90: envelope SF162; for IC50 / IC90: 1st inhibitor alone, HIV-1 envelope SF162
Excerpt: A self-inactivating (SIN) vector was derived from the pNL4-3ΔEnv-luciferase vector (Dragic et al. 1996) by deleting 507 basepairs in the U3 region of the 3′ long terminal repeat (LTR) so as to remove the TATA box and transcription factor binding sites. The human cytomegalovirus promoter was inserted upstream of the luciferase (luc) gene to enable expression of luciferase following integration.
Reporter viruses pseudotyped with HIV-1JR-FL or HIV-1SF162 envelopes were generated by cotransfection of 293T cells with the SIN vector and the appropriate pcDNA env-expressing vector as previously described (Dragic et al. 1996). […] Cultures were incubated for 72 h at 37° C. in DMEM containing 10% fetal bovine serum, 1 mg/mL puromycin, 0.3 mg/mL geneticin, antibiotics, and 0.5% DMSO. Luciferase activity (relative light units or RLU) was measured using BrightGlo reagent (Promega, Madison, Wis.) according to the manufacturer's instructions. Percent inhibition was calculated as: (1−RLU in the presence of inhibitor/RLU in the absence of inhibitor)×100.
Experimental design and data analysis were based on the combination index (CI) method (Chou et al. 1991; Chou et al. 1984). Compounds were tested individually and in combination at a fixed molar ratio over a range of serial dilutions. […] The mutually exclusive CI formula was used for combinations of CCR5 inhibitors, while the mutually non-exclusive formula was utilized for combinations of inhibitors to distinct targets (Chou et al. 1991). Each test was conducted 4-12 times. Synergy, additivity and antagonism are indicated by CI<1, CI=1 and CI>1, respectively.

[3] = target: HIV-1JR-FL envelope-mediated membrane fusion (HeLa-EnvJRFL and CEM NKR-CCR5 cells) (Homo sapiens, UniProt P51681); experiment: cell-based; details: for Mean Dose Reduction (2D7) / Mean Dose Reduction (Cpd in combination): 2D7 in combination with the labelled inhibitor, 1:1 molar ratio
HIV-1JR-FL envelope-mediated membrane fusion (HeLa-EnvJRFL and CEM NKR-CCR5 cells) (Homo sapiens, UniProt P51681), sequence (P51681 whole entry, the tested form may be a part): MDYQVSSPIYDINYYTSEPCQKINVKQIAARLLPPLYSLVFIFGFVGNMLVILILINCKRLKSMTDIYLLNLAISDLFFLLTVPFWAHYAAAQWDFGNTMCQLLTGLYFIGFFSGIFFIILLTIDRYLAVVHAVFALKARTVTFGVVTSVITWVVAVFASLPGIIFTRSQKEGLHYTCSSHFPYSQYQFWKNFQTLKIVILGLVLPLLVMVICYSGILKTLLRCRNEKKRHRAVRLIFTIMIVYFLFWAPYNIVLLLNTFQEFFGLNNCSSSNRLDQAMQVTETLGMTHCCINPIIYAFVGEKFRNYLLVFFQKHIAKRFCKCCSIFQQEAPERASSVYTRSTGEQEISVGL
Protocol: as §1, §2, §3, §4, §5, §6, §7

[4] = PRO 140 in combination with the labelled inhibitor, 1:1 molar ratio
[5] = labelled 1st inhibitor with 2nd inhibitor PRO 140, equimolar, mean ± SD of 4-12 assays
[6] = molar ratio PRO 140 to labelled inhibitor 1:5
[7] = molar ratio PRO 140 to labelled inhibitor 5:1
[8] = labelled 1st inhibitor with 2nd inhibitor PRO 140, equimolar (1:10 PRO 140 to zidovudine or nevirapine)
[9] = labelled 1st inhibitor with 2nd inhibitor UK-427,857, equimolar
[10] = SCH-D (Drug 1) with TAK-779 (Drug 2), molar ratio 1:1
[11] = inhibitor tested individually, experiment depicted in FIG. 11B
[12] = inhibitor tested individually, experiment depicted in FIG. 11A

| Molecule | Mean Dose Reduction (Cpd in combination) [1, 4] | Mean Dose Reduction (PRO 140) [1, 4] | Mean Dose Reduction (Cpd. in combination) [1, 6] | Mean Dose Reduction (PRO 140) [1, 6] | Mean Dose Reduction (Cpd. in combination) [1, 7] | Mean Dose Reduction (PRO 140) [1, 7] | CI50 [2, 8] | CI90 [2, 8] | Mean Dose Reduction (2D7) [3] | Mean Dose Reduction (Cpd in combination) [3] | IC90 [3, 11] [nM] | IC50 ([2]; read-out: IC50) [nM] | IC90 ([2]; read-out: IC90) [nM] | IC90 [3, 12] [nM] | further results |
| --- | --- | --- | --- | --- | --- | --- | --- | --- | --- | --- | --- | --- | --- | --- | --- |
| COc1ccnc2[nH]cc(C(=O)C(=O)N3CCN(C(=O)c4ccccc4)C[C@H]3C)c12 [BMS-378806, (R)-N-(benzoyl)-3-methyl-N′-[(4-methoxy-7-azaindol-3-yl)-oxoacetyl]-piperazine] | 2.85 ± 0.76 | 1.64 ± 0.30 | 1.07 ± 0.31 | 3.64 ± 0.73 | 8.88 ± 4.16 | 1.14 ± 0.06 | 1.1 ± 0.28 | 0.82 ± 0.21 |  |  |  |  |  |  | Mean CI (Combination Index at IC50) [1, 4]: 1.21±0.21; Mean Combination Index (at IC50) ([1]; PRO 140 in combination with the labelled inhibitor, molar ratio PRO 140 to inhibitor 1:5): 1.55 ± 0.24; Mean Combination Index (at IC50) ([1]; PRO 140 in combination with the labelled inhibitor, molar ratio PRO 140 to inhibitor 5:1): 1.12 ± 0.10; CI90 [1, 5]: 1.1 ± 0.22 |
| COC[C@@H](c1ccc(C(F)(F)F)cc1)N1CCN(C2(C)CCN(C(=O)c3c(C)ncnc3C)CC2)C[C@@H]1C [SCH-D, 1-[(4,6-dimethyl-5-pyrimidinyl)carbonyl]-4-[4-[2-methoxy-1(R)-4-(trifluoromethyl)phenyl]ethyl-3(S)-methyl-1-piperazinyl]-4-methylpiperidine] | 3.90 ± 0.71 | 4.21 ± 0.96 | 1.73 ± 0.19 | 9.95 ± 2.03 | 8.44 ± 1.27 | 1.92 ± 0.40 |  |  | 3.25 ± 0.56 | 4.04 ± 0.78 | 34 | 0.34 | 14 |  | IC50 ([1]; 1st inhibitor alone (Table 13)): 3.2 nM; IC90 ([1]; 1st inhibitor alone (Table 13)): 16 nM; CI50 ([1]; labelled 1st inhibitor with 2nd inhibitor TAK-779, equimolar): 1.3 ± 0.18; CI50 [1, 9]: 0.86 ± 0.03; CI90 [1, 9]: 0.75 ± 0.02; Mean CI ± stdev [3, 10]: 1.12±0.32; Mean DR (Drug 1) [3, 10]: 1.48 ± 0.96; CI90 ([3]; SCH-D and UK-427,857 1:1, experiment depicted in FIG. 11B): 0.73; IC90 ([3]; read-out: IC90 of the combination, 1:1 fixed molar ratio combination of SCH-D and UK-427,857, FIG. 11B): 31 nM |
| Cc1nnc(C(C)C)n1C1CC2CCC(C1)N2CC[C@H](NC(=O)C1CCC(F)(F)CC1)c1ccccc1 (some centres unmarked) [UK-427,857] | 2.98 ± 0.65 | 4.16 ± 0.41 | 1.58 ± 0.17 | 11.31 ± 2.14 | 7.25 ± 2.19 | 2.00 ± 0.35 |  |  |  |  | 59 |  |  | 21 | IC90 ([3]; read-out: IC90 of the combination, 1:1 fixed molar ratio combination of PRO 140 and UK-427,857, FIG. 11A): 4.6 nM; IC50 [2]: 0.87 nM; IC90 [2]: 13 nM; CI90 ([2]; labelled 1st inhibitor with 2nd inhibitor SCH-D): 0.86 ± 0.28 |
| PRO 140: humanized IgG4,κ anti-CCR5 monoclonal antibody, humanized version of murine mAb PA14 (antibody, chains of the INN, looked up, V domains shown) VH: EVQLVESGGGLVKPGGSLRLSCAASGYTFSNYWIGWVRQAPGKGLEWIGDIYPGGNYIRNNEKFKDKTTLSADTSKNTAYLQMNSLKTEDTAVYYCGSSFGSNYVFAWFTYWGQGTLVTVSS VL: DIVMTQSPLSLPVTPGEPASISCRSSQRLLSSYGHTYLHWYLQKPGQSPQLLIYEVSNRFSGVPDRFSGSGSGTDFTLKISRVEAEDVGVYYCSQSTHVPLTFGQGTKVEIK |  |  |  |  |  |  | 1.0 ± 0.27 | 0.86 ± 0.33 | 2.54 ± 0.13 | 1.87 ± 0.07 |  | 1.3 | 20 | 11 | IC50 [3, 12]: 2.9 nM; CI50 [3, 5]: 0.96 |
